Source: patent publication US4448717A, “Pharmacologically active peptides” (Eli Lilly and Company, priority 1982, dated 1984)

Columns and labels:
mice = conditions: cited from earlier work
mouse (Harlan ND4) = assay: mouse hot plate test (mouse jump); type: in vivo; conditions: subcutaneous injection, 15 minutes after administration, hot plate 55° C., dose producing analgesia in 50% of mice
Experimental: In this test, an upright acrylic cylinder comprising, as its base, a hot plate surface which is maintained at 55° C. is used. A mouse (Harlan ND4) is given, by subcutaneous injection, a predetermined amount of test compound dissolved or suspended in a suitable carrier, and, 15 minutes after administration of the test compound, the mouse is placed on the hot plate surface. The latency in seconds until the mouse jumps from the hot plate surface is measured. […] This must occur in a dose range which produces no motor incoordination or incapacitation. The following Table records ED50 results obtained from this test. By the term "ED50 " is meant that dose which produces analgesia in 50% of the mice tested. Analgesia is defined as a response latency in the presence of test compound that is equal to or greater than the control response latency plus two standard deviations. The percent analgesia data are converted to probits, and the ED50 is calculated by regression analysis of the dose-response data. Each dose response curve must have at least four points, and each point is determined using data from a minimum of ten treated mice and ten control mice.

enkephalin (δ) receptor = molecular target: T1, enkephalin (δ) receptor (Mus musculus, UniProt P32300); assay: mouse vas deferens assay; type: cell-based; conditions: depression of 50% of the electrically evoked contraction, field stimulation 0.15 Hz, 37° C.
T1 construct: from tissue; host or cells: mouse vas deferens (Harlan ND4 mice)
Experimental: In the mouse vas deferens test, single mouse vas deferens from mature mice (Harlan ND4, 30-40 g.) are suspended in 3 ml. of modified Kreb's solution aerated with 95% O2 -5% CO2 and maintained at 37° C. The twitch induced by field stimulation (0.15 Hz, 1 msec., 40V) is recorded on a polygraph via an isometric transducer. The test compound is added to the bath in 20 to 30 μl. aliquots. A dose-response curve is constructed by cumulative addition of appropriate amounts of the compound to the bath. Comparison of relative agonist potency at the δ receptor is made on the basis of IC50 values (concentration causing depression of 50% of the electrically evoked contraction).
The Table following also provides results for compounds of this invention when tested in the mouse vas deferens assay.

T1 sequence (P32300 whole entry): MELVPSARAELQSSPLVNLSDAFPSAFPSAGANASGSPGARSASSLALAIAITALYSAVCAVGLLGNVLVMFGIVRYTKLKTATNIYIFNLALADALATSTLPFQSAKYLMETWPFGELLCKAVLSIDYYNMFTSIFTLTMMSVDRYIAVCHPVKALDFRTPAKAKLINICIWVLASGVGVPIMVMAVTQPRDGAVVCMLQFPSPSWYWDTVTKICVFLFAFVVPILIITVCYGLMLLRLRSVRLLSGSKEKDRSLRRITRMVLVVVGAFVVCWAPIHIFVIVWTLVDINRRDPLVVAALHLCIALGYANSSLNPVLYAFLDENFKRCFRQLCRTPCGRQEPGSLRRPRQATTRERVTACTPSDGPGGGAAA

Compound | analgesic activity when administered parenterally (mice) | Mouse Jump ED50 (mouse (Harlan ND4)) | IC50 (enkephalin (δ) receptor)
H-Tyr-Gly-Gly-Phe-Met-OH [methionine enkephalin] | practically devoid of any useful analgesic activity | – | –
CC(=O)C(Cc1ccccc1)NC(=O)CNC(=O)[C@@H](C)NC(=O)[C@@H](N)Cc1ccc(O)cc1 (stereo partly drawn) [Example 1, L-Tyrosyl-D-alanyl-N-(2-oxo-1-benzylpropyl)glycinamide] | – | 3.2 mg/kg | 0.49 nM
CCN(C(=O)CNC(=O)[C@@H](C)NC(=O)[C@@H](N)Cc1ccc(O)cc1)[C@@H](Cc1ccccc1)C(C)=O [Example 2, L-Tyrosyl-D-alanyl-N-ethyl-N-(2-oxo-1-benzylpropyl)glycinamide] | – | 0.006 mg/kg | 0.71 nM
